{"source": "paper PMC6447857", "about": "“Structural Study of Agmatine Iminohydrolase From Medicago truncatula, the Second Enzyme of the Agmatine Route of Putrescine Biosynthesis in Plants” (Frontiers in Plant Science, 2019)", "molecular_target": "T1, MtAIH (Medicago truncatula, UniProt G7JT50)", "T1 construct": "gene AIH; ORF from codon 11 (leaf cDNA), pMCSG68, N-terminal His6-tag removed by TEV, Ser-Asn-Ala linker kept; E. coli BL21 Gold; homodimer (81 kDa by MALS)", "T1 sequence (G7JT50 11-374)": "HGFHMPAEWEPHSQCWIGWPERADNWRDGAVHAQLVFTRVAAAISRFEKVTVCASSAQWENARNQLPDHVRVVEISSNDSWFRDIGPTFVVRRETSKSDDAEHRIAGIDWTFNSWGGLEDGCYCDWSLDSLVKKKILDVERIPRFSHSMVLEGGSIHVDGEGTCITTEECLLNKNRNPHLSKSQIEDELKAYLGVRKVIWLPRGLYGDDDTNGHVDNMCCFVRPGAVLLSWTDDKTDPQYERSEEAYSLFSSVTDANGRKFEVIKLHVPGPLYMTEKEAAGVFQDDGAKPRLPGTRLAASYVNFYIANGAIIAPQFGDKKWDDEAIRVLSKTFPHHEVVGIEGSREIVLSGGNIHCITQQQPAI", "assay": "X-ray crystallography (cocrystallization), […] A", "type": "binding", "settings": "10 mM ligand, Morpheus Screen, pH 6.5; active site; reaction product analog; bound in three of four chains", "data": [{"smiles": "NCCCCCC(N)=O", "note": "[AHX, 6-aminohexanamide]", "values": [{"measurement": "X-ray crystallography (cocrystallization), 2.20 A", "value": "The MtAIH-AHX structure was obtained by cocrystallization and presents the bound AHX"}]}]}
